Assay results as given in publication PMC9738927, “A Newly Identified Monoterpenoid-Based Small Molecule Able to Support the Survival of Primary Cultured Dopamine Neurons and Alleviate MPTP-Induced Toxicity In Vivo” (Molecules, 2022).

How the values were obtained:
[1] = Pharmacokinetics in brain tissue after a single oral dose (HPLC-MS/MS); assay type: in vivo, CD1 IGS mice; details: single oral 10 mg/kg
Procedure: CD1 IGS mice received a single oral dose of PA96 in Tween 80 (10 mg/kg). Mice were sacrificed 5, 10, 30, 60, and 120 min after injection, and all brain samples were collected and placed into an Eppendorf microtube (2 mL). Samples were frozen with liquid nitrogen for subsequent preparation and HPLC-MS/MS analysis. A set of calibrators were prepared, followed by their preparation protocol, and analyzed. The calibration curve was built in the interval of 1–100 ng/g and used to calculate the PA96 concentration in the brain tissue samples.
A stock solution was prepared by dissolving approximately 10 mg of PA96 in a required amount of pure methanol to have the solution with a concentration of 1.0 mg/mL. The working solutions of PA96 with concentrations of 5, 7.5, 25, 50, 75, 250, and 300 ng/mL were prepared by diluting the stock solution with methanol. To prepare a calibrator, a free PA96 brain tissue (~50 mg) was weighed and transferred into an Eppendorf microtube (V = 1.5 mL), then the working solution of PA-96 was added. The mixture was homogenized (Minilys, Bertin Technologies, Montigny-leBretonneux, France) for 60 s at low speed. The calibrators were prepared on the day of the experiment. The working solution of IS in acetonitrile with a concentration of 1.0 mg/mL was used. All the solutions were stored at −18 °C. Before sample preparation, the solutions were brought to room temperature.
The exact amount (~50 mg) of the mouse brain tissue sample was transferred into a polypropylene tube (1.5 mL). For each portion, the solution of IS (1 µL per 1 mg of the brain sample) and pure acetonitrile (10 µL per 1 mg of the brain sample) were added, then all samples were homogenized for 4 min at medium speed. After the homogenization procedure, ~100 mg of the salt mixture (magnesium sulfate: sodium chloride: trisodium citrate: disodium citrate as 4:1:1:0.5) for extraction was added, followed by shaking for 30 min at 1400 rpm in an orbital shaker. The supernatant was separated from the homogenate by centrifugation for 10 min at 13,400 rpm. The obtained solution was further shaken with ~80 mg of the SPE mixture (magnesium sulfate:C18EC as 6:1 and acetonitrile) for 10 min at 1400 rpm and centrifuged for 10 min at 13,400 rpm. A total of 300 µL of the organic phase was placed into a fresh tube and evaporated to dryness in a vacuum. The residue containing the analyte and IS was dissolved in 150 μL of methanol, shaken for 10 min, transferred into a chromatographic vial, and analyzed by HPLC-MS/MS.
The LC-MS/MS analysis was performed using an LC-20AD Prominence chromatograph equipped with an autosampler thermostated at +10 °C (Shimadzu, Japan) and a 3200 QTRAP mass spectrometer equipped with an ESI source (AB SCIEX, USA). Separation was achieved on a ProntoSil-120-5-C18 AQ column (2.0 × 75 mm, 5 μm particles, (EcoNova, Novosibirsk, Russia)) thermostated at +35 °C. The mobile phase was composed of water containing 0.1% formic acid (eluent A) and methanol containing 0.1% formic acid (eluent B). The gradient elution program was as follows: 0 min-10% (B); 0.5 min-10% (B); 7 min-98% (B); 9 min-98% (B); the flow rate was 200 μL/min.
The mass spectrometer was operated using multiple reaction monitoring (MRM) in positive ion mode. Ionization was conducted by applying a voltage of 5500 V, and the source temperature was set at +350 °C. For the analyte and IS, the optimized source parameters, viz. CUR (curtain gas), GS1 (Gas 1), and GS2 (Gas 2) were set at 20 psi. The CAD (collisionally activated dissociation) gas was nitrogen, and the parameter was set as high. The parameters of PA96, viz. MRM transitions, declustering potentials (DP), collision energies (CE), and collision cell exit potentials (CXP) are presented in Table 3. The dwell time was 100 msec. Analyst 1.6.2 software (AB SCIEX, USA) was used for instrument control and data acquisition, and MultiQuant 2.1 software (AB SCIEX, USA) was used for quantification. […]

[2] = tested on: haloperidol-induced catalepsy; test: Haloperidol-induced catalepsy, parallel bars test; assay type: in vivo, male Wistar rats; details: 1, 10, 20 mg/kg per os, haloperidol 1.5 mg/kg i.p.
Procedure: Neuroleptic-induced catalepsy has long been used as an animal model for screening drugs for parkinsonism, as described before. Adult male Wistar rats were divided into four groups, each containing six animals. Group 1 received haloperidol 1.5 mg/kg in normal saline and served as the cataleptic control without any drug treatment. The studied compound PA96 was dissolved in saline containing 0.5% Tween 80 just before use. Groups 2, 3, and 4 received PA-96 in a dose of 1, 10, or 20 mg/kg per os accordingly; 10 min after the PA96 administration, catalepsy was induced by the intraperitoneal administration of haloperidol in a dose of 1.5 mg/kg body weight in normal saline. All the behavioral studies were performed at room temperature in a calm room without external interference. The severity of catalepsy was measured 30, 60, 120, 180, and 240 min after haloperidol administration using the method of parallel bars. The fore and hind limbs of a rat were placed on parallel bars (walls) to ensure that the animal’s back was straight, and the time spent by the animal in an immobilized state was recorded. The general duration of catalepsy and the percentage of cataleptic animals in the group were evaluated.

[3] = tested on: MPP^+-treated primary midbrain dopamine neurons; test: Survival of MPP+-challenged cultured dopamine neurons (TH-positive cell count); assay type: cell-based, mouse
Procedure: We developed a compound library containing 20 diol derivatives and screened them on cultured primary DA neurons (Supplementary Materials, Table S1). Compounds were taken at a dose of 0.1 and 1 μM (based on effective doses for the epoxydiol). Based on the screening results, we selected four compounds and tested them in a naïve and MPP^+-treated (1-methyl-4-phenylpyridinium (MPP^+), the neurotoxic metabolite of MPTP) DA culture at 1, 10, and 100 nM to select the compound with the lowest effective dose.
The survival of cultured mouse DA neurons was assessed as described before. Briefly, naïve or MPP^+ (dopaminergic selective neurotoxin)-challenged embryonic midbrain neurons were cultured in the presence or absence of a diol-like compound. The number of survived DA neurons was estimated after immunocytochemical staining with antibodies recognizing the key enzyme of dopamine synthesis—tyrosine hydroxylase.

C=C(C)[C@@H]1CC=C(C)[C@@H](Sc2nc[nH]n2)[C@@H]1O [PA96, (1R,2R,6S)-2-(1H-1,2,4-triazol-3-ylthio)-3-methyl-6-(prop-1-en-2-yl)cyclohex-3-enol]
Kp ([1]; CD1 IGS, mouse, brain and whole blood, read-out: Kb,brain (brain-to-blood coefficient, AUCbrain/AUCblood)): 0.119 ± 0.01
Cmax ([1]; CD1 IGS, mouse, brain): 125 ng/g
Tmax ([1]; CD1 IGS, mouse, brain): 5 min
half-life ([1]; CD1 IGS, mouse, brain): 18.8 ± 0.3 min
MRT inf ([1]; CD1 IGS, mouse, brain, read-out: MRT0-inf_obs (converted)): 21.5 min
concentration in blood higher than in brain tissue ([1]; at 5 min): approximately 4.5 times
AUC0-inf_obs ([1]; brain): (2.03 ± 0.09) × 10^3 ng/g∗min
AUC0-t ([1]; brain): (1.99 ± 0.09) × 10^3 ng/g∗min
time at which the concentration in brain was close to the minimum value [1]: 2 h
catalepsy time [2]: significantly decreased
percentage of cataleptic animals [2]: significantly decreased
number of TH-positive neurons relative to VEH-treated wells ([3]; MPP+ and 1 nM, p = 0.03): 2.4 fold
inhibition at 0.1 µM ([3]; Mus musculus, Neuron, 100 nM, compared to VEH-treated wells, read-out: Support effect / inhibition, MPP+-treated dopamine neurons, 100 nM): 0%
